Laboratory results taken from ChEMBL document CHEMBL1201862, “PubChem BioAssay data set” (2004).
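Method: 48-hour compound exposure of cells in 96-well plates, five concentrations, linear interpolation of endpoints. GI50: concentration for 50% inhibition of growth.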 Activity calls are given as the source filed them. No stated cut-off is given here; in the data, active = GI50 up to about 1.1 µM and inactive = higher.

Experiments:
Assay in all cases: DTP human tumour cell line panel, 48 h
[1] = test system: Malme-3M
[2] = test system: NCI-H226
[3] = test system: IGROV-1
[4] = test system: SK-MEL-5
[5] = test system: NCI-H522
[6] = test system: SK-MEL-28
[7] = test system: OVCAR-3
[8] = test system: NCI-H460
[9] = test system: NCI-H23
[10] = test system: U-251
[11] = test system: HCT-116
[12] = test system: RXF 393
[13] = test system: COLO 205
[14] = test system: HOP-62
[15] = test system: RPMI-8226
[16] = test system: HOP-92

| Structure (SMILES) | GI50 [1] | GI50 [2] | GI50 [3] | GI50 [4] | GI50 [5] | GI50 [6] | GI50 [7] | GI50 [8] | GI50 [9] | GI50 [10] | GI50 [11] | GI50 [12] | GI50 [13] | GI50 [14] | GI50 [15] | GI50 [16] |
| --- | --- | --- | --- | --- | --- | --- | --- | --- | --- | --- | --- | --- | --- | --- | --- | --- |
| O=C(NN1C(=O)C(Cl)C1c1ccc(O)cc1)c1ccccc1O (configuration not stated) | 18.6 µM (inactive) | 16 µM (inactive) | 14 µM (inactive) | 14.6 µM (inactive) | 18.1 µM (inactive) | 19.4 µM (inactive) | 16.7 µM (inactive) | 17.5 µM (inactive) | 22.2 µM (inactive) | 14.3 µM (inactive) | 13.7 µM (inactive) | 13.1 µM (inactive) | – | – | – | – |
| CCc1cccc(C(C)C)c1C1C(=O)C(=O)N(c2nc3ccccc3s2)C(=O)C1=O | > 100 µM (inactive) | > 100 µM (inactive) | > 100 µM (inactive) | > 100 µM (inactive) | – | > 100 µM (inactive) | > 100 µM (inactive) | > 100 µM (inactive) | > 100 µM (inactive) | > 100 µM (inactive) | > 100 µM (inactive) | > 100 µM (inactive) | > 100 µM (inactive) | > 100 µM (inactive) | > 100 µM (inactive) | 38.7 µM (inactive) |
| Cc1cc(C)[n+]2c(c1)C=CC2.[O-][Cl+3]([O-])([O-])[O-] | 1.65 µM (inactive) | 15.6 µM (inactive) | – | 13.9 µM (inactive) | 3.21 µM (inactive) | 12.4 µM (inactive) | 11.7 µM (inactive) | 34.8 µM (inactive) | 15.7 µM (inactive) | 29.7 µM (inactive) | – | 2.89 µM (inactive) | 15 µM (inactive) | 57.1 µM (inactive) | – | 8.57 µM (inactive) |
| CC(=O)Nc1ccc(C(=O)N2N=C(C)/C(=C/c3ccc(O)cc3)C2=O)cc1 | > 100 µM (inactive) | > 100 µM (inactive) | – | > 100 µM (inactive) | > 100 µM (inactive) | > 100 µM (inactive) | > 100 µM (inactive) | > 100 µM (inactive) | > 100 µM (inactive) | > 100 µM (inactive) | > 100 µM (inactive) | – | > 100 µM (inactive) | > 100 µM (inactive) | > 100 µM (inactive) | – |
| CCCN(CCC)C1=Nc2ccccc2-n2cnnc2C1 | > 100 µM (inactive) | > 100 µM (inactive) | > 100 µM (inactive) | > 100 µM (inactive) | 37.8 µM (inactive) | > 100 µM (inactive) | > 100 µM (inactive) | > 100 µM (inactive) | > 100 µM (inactive) | > 100 µM (inactive) | > 100 µM (inactive) | > 100 µM (inactive) | > 100 µM (inactive) | > 100 µM (inactive) | > 100 µM (inactive) | – |
| CN(C)c1nc(N(C)C)sc(=O)n1 | – | > 100 µM (inactive) | > 100 µM (inactive) | > 100 µM (inactive) | > 100 µM (inactive) | > 100 µM (inactive) | – | > 100 µM (inactive) | > 100 µM (inactive) | > 100 µM (inactive) | – | > 100 µM (inactive) | – | > 100 µM (inactive) | > 100 µM (inactive) | > 100 µM (inactive) |
| COc1ccc(C(c2c(O)c3ccccc3n(-c3ccccc3)c2=O)c2c(O)c3ccccc3n(-c3ccccc3)c2=O)cc1 | > 100 µM (inactive) | > 100 µM (inactive) | – | > 100 µM (inactive) | > 100 µM (inactive) | > 100 µM (inactive) | > 100 µM (inactive) | – | > 100 µM (inactive) | > 100 µM (inactive) | > 100 µM (inactive) | > 100 µM (inactive) | > 100 µM (inactive) | > 100 µM (inactive) | > 100 µM (inactive) | 49.2 µM (inactive) |
| O=C1c2ccccc2C(=O)N1C/C=N/NS(=O)(=O)c1ccc2ccccc2c1 | > 100 µM (inactive) | > 100 µM (inactive) | > 100 µM (inactive) | > 100 µM (inactive) | > 100 µM (inactive) | – | > 100 µM (inactive) | > 100 µM (inactive) | > 100 µM (inactive) | > 100 µM (inactive) | > 100 µM (inactive) | – | > 100 µM (inactive) | > 100 µM (inactive) | > 100 µM (inactive) | – |
| O=C(O)c1c[nH]c2c(=O)[nH]cnc12 | > 100 µM (inactive) | – | > 100 µM (inactive) | > 100 µM (inactive) | > 100 µM (inactive) | > 100 µM (inactive) | > 100 µM (inactive) | – | > 100 µM (inactive) | – | > 100 µM (inactive) | > 100 µM (inactive) | > 100 µM (inactive) | > 100 µM (inactive) | > 100 µM (inactive) | > 100 µM (inactive) |
| O=C(Nc1c(Cl)cc([N+](=O)[O-])cc1Cl)/C(=N\Nc1cccc(Cl)c1)c1c(O)c2ccccc2oc1=O | > 100 µM (inactive) | – | > 100 µM (inactive) | > 100 µM (inactive) | 39.9 µM (inactive) | > 100 µM (inactive) | > 100 µM (inactive) | > 100 µM (inactive) | 62.7 µM (inactive) | – | 56.1 µM (inactive) | 66.2 µM (inactive) | > 100 µM (inactive) | 74 µM (inactive) | 50 µM (inactive) | – |
| CC(=O)Oc1ccc(O)c2c1CCCC2 | > 40.5 µM (inactive) | > 100 µM (inactive) | > 100 µM (inactive) | > 45.7 µM (inactive) | 13.6 µM (inactive) | 66.4 µM (inactive) | 12.5 µM (inactive) | > 31.6 µM (inactive) | > 52.8 µM (inactive) | > 78.3 µM (inactive) | 18.4 µM (inactive) | > 42.8 µM (inactive) | 22.4 µM (inactive) | > 100 µM (inactive) | 23.3 µM (inactive) | – |
| O=c1c2ccccc2oc2nccnc12 | > 100 µM (inactive) | – | > 100 µM (inactive) | > 100 µM (inactive) | – | > 100 µM (inactive) | > 100 µM (inactive) | > 100 µM (inactive) | > 100 µM (inactive) | > 100 µM (inactive) | > 100 µM (inactive) | > 100 µM (inactive) | > 100 µM (inactive) | > 100 µM (inactive) | > 100 µM (inactive) | – |
| CCOC(=O)CN(Cn1cncn1)Cn1cncn1 | 52 µM (inactive) | 28.1 µM (inactive) | > 100 µM (inactive) | 24.2 µM (inactive) | – | 18.4 µM (inactive) | 19.6 µM (inactive) | 24.9 µM (inactive) | – | 17.9 µM (inactive) | 30.8 µM (inactive) | 14.8 µM (inactive) | 36.9 µM (inactive) | > 100 µM (inactive) | 55.2 µM (inactive) | > 100 µM (inactive) |
| C#C[C@@]1(O)CCCC2=CC(=O)C[C@]21C | > 100 µM (inactive) | > 100 µM (inactive) | > 100 µM (inactive) | > 100 µM (inactive) | > 100 µM (inactive) | > 100 µM (inactive) | > 100 µM (inactive) | > 100 µM (inactive) | > 100 µM (inactive) | > 100 µM (inactive) | – | > 100 µM (inactive) | > 100 µM (inactive) | – | > 100 µM (inactive) | > 100 µM (inactive) |
| COc1cccc2ccc(C(=O)c3ccccc3)nc12 | > 100 µM (inactive) | > 100 µM (inactive) | > 100 µM (inactive) | > 100 µM (inactive) | > 100 µM (inactive) | 88.9 µM (inactive) | > 100 µM (inactive) | – | > 100 µM (inactive) | > 100 µM (inactive) | > 100 µM (inactive) | – | > 100 µM (inactive) | > 100 µM (inactive) | > 100 µM (inactive) | – |
| C[N+](C)(C)CC1CCCCC1O (configuration not stated) | – | > 100 µM (inactive) | > 100 µM (inactive) | > 100 µM (inactive) | 63 µM (inactive) | > 100 µM (inactive) | > 100 µM (inactive) | > 100 µM (inactive) | > 100 µM (inactive) | > 100 µM (inactive) | > 100 µM (inactive) | > 100 µM (inactive) | > 100 µM (inactive) | > 100 µM (inactive) | > 100 µM (inactive) | > 100 µM (inactive) |
| CCCC(C)NC1=C(NC(C)=O)C(=O)c2ccccc2C1=O (configuration not stated) | 36.1 µM (inactive) | > 100 µM (inactive) | > 100 µM (inactive) | 73.8 µM (inactive) | 64.7 µM (inactive) | > 100 µM (inactive) | > 100 µM (inactive) | > 100 µM (inactive) | > 100 µM (inactive) | > 100 µM (inactive) | > 100 µM (inactive) | > 100 µM (inactive) | > 100 µM (inactive) | > 100 µM (inactive) | – | 47.9 µM (inactive) |
| COC(=O)C[S+]([O-])c1ccccc1 (configuration not stated) | > 100 µM (inactive) | – | 19.2 µM (inactive) | 25.4 µM (inactive) | 13.8 µM (inactive) | 29.8 µM (inactive) | 31.3 µM (inactive) | 59.8 µM (inactive) | 35 µM (inactive) | 24.4 µM (inactive) | 30.3 µM (inactive) | 16.4 µM (inactive) | 34.3 µM (inactive) | 32.6 µM (inactive) | 21.9 µM (inactive) | 17.6 µM (inactive) |
| CC1=C(CO)C(=O)O[C@@H]([C@@H](C)[C@H]2CC[C@H]3[C@@H]4C[C@H]5O[C@]56[C@@H](O)C=CC(=O)[C@]6(C)[C@H]4CC[C@]23C)C1 [WITHAFERIN A] | 0.243 µM (active) | 1.3 µM (inactive) | 1.16 µM (inactive) | 1.68 µM (inactive) | 0.0335 µM (active) | 0.55 µM (active) | 1.05 µM (active) | 2.91 µM (inactive) | 0.221 µM (active) | 0.247 µM (active) | 0.282 µM (active) | – | 0.406 µM (active) | 2.04 µM (inactive) | 0.247 µM (active) | 0.467 µM (active) |
